Laboratory results taken from EP2975033A1, “Improved cysteine-protease inhibitors” (Universitat Jaume I, priority 2014, dated 2016).
Values after ≈ are worked out from the molar mass of the structure shown. Read-outs that look alike come from different tables or passages of the source.

Tests used:
Cathepsin L (human) = target: T1, Cathepsin L (human) (Homo sapiens, UniProt P07711); test: Protease assay, fluorogenic substrate Z-Phe-Arg-AMC: Cathepsin L; type: biochemical
T1 construct: Cathepsin L (human liver) Calbiochem; purchased Calbiochem; host or cells: human liver (tissue-derived)
Excerpt: (§1) 2.1.1. Protease Assays as shown in tables 1 and 2: Cathepsin L (human), Cathepsin B (human), Rhodesain (Trypanosoma brucei rhodesiense), Falcipain 2 (Plasmodium falciparum)
(§2) Enzyme assays used to identify inhibitors of the target cysteine proteases. The effect is detected measuring fluorescence increase due to hydrolysis of fluorogenic substrates by the target enzymes in absence and presence of potential inhibitors.
(§3) • a. Proteins (enzymes): • Cathepsin L (human liver) Calbiochem • Cathepsin B (human liver) Calbiochem • Rhodesain: recombinantly expressed according to ref.: Caffrey, C. R.; Hansell, E.; Lucas, K. D.; Brinen, L. S.; Hernandez, A. A.; Cheng, J.; Gwaltney, S. L., II; Roush, W. R.; Stierhof, Y. D.; Bogyo, M.; Steverding, D.; McKerrow, J. H. Active site mapping, biochemical properties and subcellular localization of rhodesain, the major cysteine protease of Trypanosoma • Falcipain 2: recombinantly expressed according to ref.: Pandey, K. C.; Wang, S. X.; Sijwali, P. S.; Lau, A. L.; McKerrow, J. H.; Rosenthal, P. J. The Plasmodium falciparum cysteine protease falcipain-2 captures its substrate, hemoglobin, via a unique motif. Proc. Natl. Acad. Sci. U.S.A. 2005, 102, 9138-9143. • b. Buffers: • Cathepsin B: 50 mM Tris-Puffer pH 6.5 mit 2 mM DTT, 5 mM EDTA, 200 mM NaCl, 0.005% Brij35 • Cathepsin L: 50 mM Tris-Puffer pH 6.5 mit 2 mM DTT, 5 mM EDTA, 200 mM NaCl, 0.005% Brij35 • Rhodesain: 50 mM Acetat-Puffer pH 5.5 mit 5 mM DTT, 5 mM EDTA, 200 mM NaCl, 0.005% Brij35 • Falcipain 2: 50 mM Acetat-Puffer pH 5.5 mit 5 mM DTT, 5 mM EDTA, 200 mM NaCl, 0.005% Brij35 • c. Substrates: • Cathepsin L: 6,25 µM Z-Phe-Arg-7-amino-4-methylcumarin, HCl von Bachem, Ex 380 nm, Em 460 nm • Cathepsin B: 100 µM Z-Phe-Arg-7-amino-4-methylcumarin, HCl von Bachem, Ex 380 nm, Em 460 nm • Rhodesain: 10µM Z-Phe-Arg-7-amino-4-methylcumarin, HCl von Bachem, Ex 380 nm, Em 460 nm • Falcipain 2: 25µM Z-Phe-Arg-7-amino-4-methylcumarin, HCl von Bachem, Ex 380 nm, Em 460 nm • Reference substance(s)/positive control(s): E64 • d. Solvent for inhibitors and substrates: DMSO 99,5% (GC) DC4540, Sigma • e. Measurement device: Tecan Fluorescence spectrophotometer infinite F200 Pro • f. Well plates: 96 well plates, Lia-Plate White, Greiner bio-one, flat bottom, high binding • g. Methodology: Substrates and inhibitor stock solutions are prepared in DMSO and diluted with the respective assay buffer (final DMSO concentration: […]). Enzyme stock solutions are diluted with assay buffer to yield a fluorescence increase of dF/min ≈ _20. Total volume: 200 µL (180 µL of assay buffer, 5 µL of enzyme solution, 10 µL of DMSO or inhibitor solution, 5 µL of substrate solution). Assays are started by the addition of substrate solution. Fluorescence increase is detected over a period of 10 - 30 min, depending on time dependent (30 min) or non-time dependent (10 min) inhibition. • h. Temp: 25 °C • i. DATA-[…] • Software: Grafit 5.013 • Ki values are calculated from IC50 values (obtained by the 4-parameter IC50 equation) using the Chen-Prusoff equation: Ki=IC50/(1 + [S]/Km)
(§4) In vitro inhibition of cysteine-proteases cruzain (CR) (Trypanosoma cruzi (T. cruzi)), rhodesain (RD) (T. brucei), cathepsin B (CB), falcipain (FP2) (Plasmodium falciparum) and cathepsin L (CL) was assessed by quantification of the resulting fluorescence emission of the proteolytic breakdown of synthetic compound Z-Phe-Arg-AMC (Bachem). The results of this determination are shown in tables 1 and 2 illustrated above.

Falcipain 2 = target: T2, Falcipain 2 (Plasmodium falciparum, UniProt Q8I6U4); test: Protease assay, fluorogenic substrate Z-Phe-Arg-AMC: Falcipain 2; type: biochemical; details: FP2=Falcipain2
T2 construct: made in house
Excerpt: as §1, §2, §3, §4

Cathepsin B (human) = target: T3, Cathepsin B (human) (Homo sapiens, UniProt P07858); test: Protease assay, fluorogenic substrate Z-Phe-Arg-AMC: Cathepsin B; type: biochemical
T3 construct: Cathepsin B (human liver) Calbiochem; purchased Calbiochem; host or cells: human liver (tissue-derived)
Excerpt: as §1, §2, §3, §4

Rhodesain = target: T4, Rhodesain (Trypanosoma brucei rhodesiense, UniProt Q95PM0); test: Protease assay, fluorogenic substrate Z-Phe-Arg-AMC: Rhodesain; type: biochemical; details: for IC50: RD=Rhodesain, 25 °C, pH 5.5, 10µM substrate
T4 construct: made in house
Excerpt: as §1, §2, §3, §4

cruzain (CR) = cruzain (CR) (Trypanosoma cruzi, UniProt P25779); test: In vitro inhibition of cruzain, fluorescence of Z-Phe-Arg-AMC breakdown; type: biochemical
Description: as §2, §4

[1] = system: T. cruzi Tulahuen strain C2C4; test: Activity against T. cruzi in L-6 cells (beta-galactosidase, CPRG); type: cell-based; details: for IC50: Trypanosoma cruzi, TULAHUEN
Description: (§5) For all the susceptibility assays with parasites and cells, each drug was tested in duplicate and each assay was repeated at least once. • a. Activity against Trypanosoma brucei rhodesiense STIB900. This stock was isolated in 1982 from a human patient in Tanzania and after several mouse passages cloned and adapted to axenic culture conditions (Baltz et al 1985) Minimum Essential Medium (50 µl) supplemented with 25 mM HEPES, 1g/l additional glucose, 1% MEM non-essential amino acids (100x), 0.2 mM 2-mercaptoethanol, 1 mM Na-pyruvate and 15% heat inactivated horse serum was added to each well of a 96-well microtiter plate. Serial drug dilutions of eleven 3-fold dilution steps covering a range from 100 to 0.002 µg/ml were prepared. Then 4x10^3 bloodstream forms of T. b. rhodesiense STIB 900 in 50 µl was added to each well and the plate incubated at 37 °C under a 5 % CO2 atmosphere for 70 h. 10 µl Alamar Blue (resazurin, 12.5 mg in 100 ml double-distilled water) was then added to each well and incubation continued for a further 2-4 h (Raz et al 1997). Then the plates were read with a Spectramax Gemini XS microplate fluorometer (Molecular Devices Cooperation, Sunnyvale, CA, USA) using an excitation wave length of 536 nm and an emission wave length of 588 nm. The IC50 values were calculated by linear regression (Huber 1993) from the sigmoidal dose inhibition curves using SoftmaxPro software (Molecular Devices Cooperation, Sunnyvale, CA, USA). Melarsoprol (Arsobal Sanofi-Aventis, received from WHO) is used as control. • b. Activity against T. cruzi. Rat skeletal myoblasts (L-6 cells) were seeded in 96-well microtitre plates at 2000 cells/well in 100 µL RPMI 1640 medium with 10% FBS and 2 mM I-glutamine. After 24 h the medium was removed and replaced by 100 µl per well containing 5000 trypomastigote forms of T. cruzi Tulahuen strain C2C4 containing the β-galactosidase (Lac Z) gene (Buckner et al. 1996). After 48 h the medium was removed from the wells and replaced by 100 µl fresh medium with or without a serial drug dilution of eleven 3-fold dilution steps covering a range from 100 to 0.002 µg/ml. After 96 h of incubation the plates were inspected under an inverted microscope to assure growth of the controls and sterility. Then the substrate CPRG/Nonidet (50 µl) was added to all wells. A color reaction developed within 2-6 h and could be read photometrically at 540 nm. Data were analyzed with the graphic programme Softmax Pro (Molecular Devices), which calculated IC50 values by linear regression (Huber 1993) from the sigmoidal dose inhibition curves. […] Activity against L. donovani axenic amastigotes. Amastigotes of L. donovani strain MHOM/ET/67/L82 were grown in axenic culture at 37 °C in SM medium (Cunnigham et al. 1977) at pH 5.4 supplemented with 10% heat-inactivated fetal bovine serum under an atmosphere of 5% CO2 in air. One hundred microlitres of culture medium with 10^5 amastigotes from axenic culture with or without a serial drug dilution were seeded in 96-well microtitre plates. Serial drug dilutions of eleven 3-fold dilution steps covering a range from 90 to 0.002 µg/ml were prepared. After 70 h of incubation the plates were inspected under an inverted microscope to assure growth of the controls and sterile conditions. 10 µl of Alamar Blue (12.5 mg resazurin dissolved in 100 ml distilled water) (Mikus and Steverdig. 2000) were then added to each well and the plates incubated for another 2 h. Then the plates were read with a Spectramax Gemini XS microplate fluorometer (Molecular Devices Cooperation, Sunnyvale, CA, USA) using an excitation wave length of 536 nm and an emission wave length of 588 nm. Data were analyzed using the software Softmax Pro (Molecular Devices Cooperation, Sunnyvale, CA, USA). Decrease of fluorescence (= inhibition) was expressed as percentage of the fluorescence of control cultures and plotted against the drug concentrations. From the sigmoidal inhibition curves the IC50 values were calculated. • d.

[2] = system: P. falciparum NF54 strain; test: Activity against P. falciparum, 3H-hypoxanthine incorporation assay; type: cell-based; details: for IC50: Plasmodium falciparum
[3] = system: Trypanosoma brucei rhodesiense STIB900; test: Activity against Trypanosoma brucei rhodesiense STIB900 (Alamar Blue); type: cell-based; details: for IC50: Trypanosoma brucei
Description: as §5

[4] = CL=CathepsinL; 25 °C, pH 6.5, 6,25 µM substrate; read-out: CL(IC50)
[5] = read-out: CBIC50micM; CB=CathepsinB; 25 °C, pH 6.5, 100 µM substrate
[6] = read-out: CL(IC50); CL=CathepsinL; 25 °C, pH 6.5, 6,25 µM substrate

T1 sequence (P07711 114-333): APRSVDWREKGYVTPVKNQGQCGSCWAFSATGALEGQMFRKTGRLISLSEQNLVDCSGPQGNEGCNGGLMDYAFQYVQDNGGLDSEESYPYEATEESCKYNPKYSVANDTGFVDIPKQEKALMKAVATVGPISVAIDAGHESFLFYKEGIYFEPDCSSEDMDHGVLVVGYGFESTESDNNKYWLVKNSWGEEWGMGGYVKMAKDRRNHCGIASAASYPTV
cruzain (CR), sequence (P25779 123-467): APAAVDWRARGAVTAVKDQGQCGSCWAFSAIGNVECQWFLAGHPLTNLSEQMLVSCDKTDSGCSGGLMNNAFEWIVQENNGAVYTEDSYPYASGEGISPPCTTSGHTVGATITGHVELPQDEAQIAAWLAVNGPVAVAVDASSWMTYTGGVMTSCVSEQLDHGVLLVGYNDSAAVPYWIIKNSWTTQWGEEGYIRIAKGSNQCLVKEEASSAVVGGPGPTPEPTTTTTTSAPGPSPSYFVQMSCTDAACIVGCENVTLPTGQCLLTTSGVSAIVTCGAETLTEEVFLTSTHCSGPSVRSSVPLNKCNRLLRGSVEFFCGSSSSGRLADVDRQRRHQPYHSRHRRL
T4 sequence (Q95PM0 entry or part of it): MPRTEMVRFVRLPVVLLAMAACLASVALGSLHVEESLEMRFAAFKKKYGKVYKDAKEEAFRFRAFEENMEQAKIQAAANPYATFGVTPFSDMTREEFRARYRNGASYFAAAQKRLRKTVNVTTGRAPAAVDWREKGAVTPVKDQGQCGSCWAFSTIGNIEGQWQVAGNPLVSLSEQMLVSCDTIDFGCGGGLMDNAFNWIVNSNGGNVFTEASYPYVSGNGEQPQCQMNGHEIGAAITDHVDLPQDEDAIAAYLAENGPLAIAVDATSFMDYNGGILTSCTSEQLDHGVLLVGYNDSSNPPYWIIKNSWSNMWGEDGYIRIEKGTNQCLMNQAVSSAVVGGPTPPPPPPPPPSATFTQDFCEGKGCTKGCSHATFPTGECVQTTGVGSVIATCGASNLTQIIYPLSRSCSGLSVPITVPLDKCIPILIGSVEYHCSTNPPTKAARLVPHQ
T2 sequence (Q8I6U4 244-484): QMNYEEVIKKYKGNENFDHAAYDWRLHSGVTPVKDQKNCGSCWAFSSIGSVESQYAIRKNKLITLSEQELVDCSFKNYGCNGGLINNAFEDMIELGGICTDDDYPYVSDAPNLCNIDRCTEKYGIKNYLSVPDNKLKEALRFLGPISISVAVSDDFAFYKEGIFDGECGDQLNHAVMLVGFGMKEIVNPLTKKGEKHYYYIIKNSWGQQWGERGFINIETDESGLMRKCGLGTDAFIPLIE

O=C(O)/C=C/[C@@H](O)[C@H](CCc1ccccc1)NC(=O)[C@H](Cc1ccccc1)NC(=O)OCc1ccccc1
CL(K2nd(M-1s-1)) (Cathepsin L (human); CL=CathepsinL): 882 M⁻¹ s⁻¹
IC50 (Cathepsin L (human); [4]): 20 µM
FP2(K2nd(M-1s-1)) (Falcipain 2): 29 M⁻¹ s⁻¹

CCOC(=O)/C=C/[C@@H](O)[C@H](CCc1ccccc1)NC(=O)[C@H](Cc1ccccc1)NC(=O)N1CCOCC1
CB(K2nd(M-1s-1)) (Cathepsin B (human); CB=CathepsinB): 4190 M⁻¹ s⁻¹
IC50 (Cathepsin B (human); CB=CathepsinB; 25 °C, pH 6.5, 100 µM substrate; read-out: CBIC50micM): 1.13 µM
CL(K2nd(M-1s-1)) (Cathepsin L (human); CL=CathepsinL): 1860 M⁻¹ s⁻¹
IC50 (Cathepsin L (human); [4]): 2.45 µM
RD(K2nd(M-1s-1)) (Rhodesain): 36735 M⁻¹ s⁻¹
IC50 (Rhodesain): 1.13 µM
CR(K2nd(M-1s-1)) (cruzain (CR)): 3615 M⁻¹ s⁻¹
IC50 (cruzain (CR)): 3.75 µM

CCOC(=O)/C=C/C(=O)[C@H](CC(C)C)NC(=O)[C@H](Cc1ccccc1)NC(=O)OCc1ccccc1
CB(K2nd(M-1s-1)) (Cathepsin B (human); CB=CathepsinB): 138462 M⁻¹ s⁻¹
IC50 (Cathepsin B (human); [5]): 0.053 µM
CL(K2nd(M-1s-1)) (Cathepsin L (human); CL=CathepsinL): 758621 M⁻¹ s⁻¹
IC50 (Cathepsin L (human); [6]): 0.0096 µM
RD(K2nd(M-1s-1)) (Rhodesain): 1611111 M⁻¹ s⁻¹
IC50 (Rhodesain): 0.0164 µM
CR(K2nd(M-1s-1)) (cruzain (CR)): 516667 M⁻¹ s⁻¹
IC50 (cruzain (CR)): 0.0162 µM

CC(C)C[C@H](NC(=O)[C@H](Cc1ccccc1)NC(=O)OCc1ccccc1)C(=O)/C=C/S(=O)(=O)c1ccccc1
CB(K2nd(M-1s-1)) (Cathepsin B (human); CB=CathepsinB): 82248 M⁻¹ s⁻¹
IC50 (Cathepsin B (human); [5]): 0.05 µM
CL(K2nd(M-1s-1)) (Cathepsin L (human); CL=CathepsinL): 383272 M⁻¹ s⁻¹
IC50 (Cathepsin L (human); [6]): 0.00995 µM
RD(K2nd(M-1s-1)) (Rhodesain): 1361750 M⁻¹ s⁻¹
IC50 (Rhodesain): 0.006 µM
CR(K2nd(M-1s-1)) (cruzain (CR)): 709411 M⁻¹ s⁻¹
IC50 (cruzain (CR)): 0.0111 µM

CCOC(=O)C=CC(O)C(CCc1ccccc1)NC(=O)C(Cc1ccccc1)NC(=O)OCc1ccccc1 (single isomer, unassigned)
CB(K2nd(M-1s-1)) (Cathepsin B (human); CB=CathepsinB): 14 M⁻¹ s⁻¹
CL(K2nd(M-1s-1)) (Cathepsin L (human); CL=CathepsinL): 77 M⁻¹ s⁻¹

O=C(Cn1ccnc1[N+](=O)[O-])NCc1ccccc1 [Benznidazole]
IC50 ([1]; L6, 96 h, replicate 1, L-6 cells, 96 h, read-out: T.cruzi. IC50 repl1): 657 ng/mL (≈ 2.52 µM)
IC50 ([1]; L6, 96 h, replicate 2, L-6 cells, 96 h, read-out: T.cruzi. IC50 repl2): 522 ng/mL (≈ 2.01 µM)
IC50 ([1]; L6, control value stated in the method text): 500 ± 200 ng/mL (≈ 1.92 µM)
IC50 ([1]; L6, mean of replicates, read-out: T.cruzi. IC50 mean): 590 ng/mL (≈ 2.27 µM)
T.cruzi. IC50 mean ([1]; mean of replicates): 0,516 micrograms/mL
T.cruzi. IC50 repl1 ([1]; replicate 1, L-6 cells, 96 h): 0,367 micrograms/mL
T.cruzi. IC50 repl2 ([1]; replicate 2, L-6 cells, 96 h): 0,664 micrograms/mL

CCN(CC)CCCC(C)Nc1ccnc2cc(Cl)ccc12 (stereo not shown) [Chloroquine, reference compound]
IC50 ([2]; NF54, read-out: P.falc NF54 IC50 mean, mean of replicates): 3 ng/mL (≈ 0.00938 µM)
IC50 ([2]; NF54, read-out: P.falc NF54 IC50 repl1, replicate 1, erythrocytic stages, NF54): 3 ng/mL (≈ 0.00938 µM)
IC50 ([2]; NF54, read-out: P.falc NF54 IC50 repl2, replicate 2, erythrocytic stages, NF54): 2 ng/mL (≈ 0.00625 µM)
P.falc NF54 IC50 repl1 ([2]; replicate 1, erythrocytic stages, NF54): 0,002 micrograms/mL

Nc1nc(N)nc(Nc2ccc([As]3SCC(CO)S3)cc2)n1 (stereo not shown) [Melarsoprol, reference compound]
IC50 ([3]; 70 h, read-out: T.b.rhod. IC50 repl1, replicate 1, bloodstream forms, 70 h): 5 ng/mL
IC50 ([3]; 70 h, read-out: T.b.rhod. IC50 repl2, replicate 2, bloodstream forms, 70 h): 2 ng/mL
IC50 ([3]; read-out: T.b.rhod. IC50 mean, mean of replicates): 3 ng/mL
T.b.rhod. IC50 mean ([3]; mean of replicates): 0,004 micrograms/mL
T.b.rhod. IC50 repl1 ([3]; replicate 1, bloodstream forms, 70 h): 0,003 micrograms/mL
T.b.rhod. IC50 repl2 ([3]; replicate 2, bloodstream forms, 70 h): 0,004 micrograms/mL
